# Measurements from patent publication US8999955B2, “Tetrahydrocyclopenta[c]acridine derivatives as kinase inhibitors and biological” (Centre National de la Recherche Scientifique, priority 2008, dated 2015).
# “And” between values parts separate entries of the source, which are not always exact repeats. Identical values can stand only once.
# Assays:
# [1] = tested on: SHSY cells; experiment: MTS test, viability of SHSY cells; type: cell-based; settings: MTS reduction
# Protocol: The viability of SHSY cells is determined by measuring the MTS reduction as described in (6).
# [2] = molecular target: CDK5 (Homo sapiens (Human), UniProt Q00535); experiment: Enzyme inhibition test, radiolabeled ATP, CDK5; type: biochemical; settings: dose-response curves
# Sequence of CDK5 (Q00535 whole entry, species assumed): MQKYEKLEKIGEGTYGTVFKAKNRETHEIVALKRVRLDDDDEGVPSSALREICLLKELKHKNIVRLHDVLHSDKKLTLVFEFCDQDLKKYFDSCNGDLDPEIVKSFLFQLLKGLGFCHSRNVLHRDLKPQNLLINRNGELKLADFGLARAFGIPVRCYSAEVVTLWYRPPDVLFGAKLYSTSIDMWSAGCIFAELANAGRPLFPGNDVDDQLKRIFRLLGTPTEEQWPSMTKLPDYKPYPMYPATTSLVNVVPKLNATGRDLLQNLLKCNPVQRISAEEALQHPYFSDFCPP
# Sequence of CDK5 (Q15078 99-307 partner, species assumed): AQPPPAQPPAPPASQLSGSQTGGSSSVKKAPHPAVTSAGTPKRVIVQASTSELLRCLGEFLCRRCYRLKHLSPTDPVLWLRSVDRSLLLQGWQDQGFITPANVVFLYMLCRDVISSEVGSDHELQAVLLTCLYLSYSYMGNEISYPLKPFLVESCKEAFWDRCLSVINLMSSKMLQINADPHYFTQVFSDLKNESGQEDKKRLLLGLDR
# Protocol: (§1) The tests are carried out as follows: the enzyme to be assayed was purified, for example by affinity chromatography on agarose beads. The catalytic activity was measured using radiolabeled ATP, at a standard final concentration. The test compounds were added at various concentrations making it possible to establish dose-response curves (activity of the enzyme as a function of the concentration). The IC50 values were calculated from these curves and are given in μM.
# [3] = molecular target: CDK1; experiment: Enzyme inhibition test, radiolabeled ATP, CDK1; type: biochemical; settings: dose-response curves
# Protocol: as §1
Structure (SMILES),% survival of SHSY cells at 10 μM [1] [%],melting point [°C],IC50 [2],IC50 [3] [µM]
"C[Si](C)(C)C1=C2c3nc4ccccc4cc3C(O)CC2CC1=O (racemic) [5-Hydroxy-1-trimethylsilanyl-3,3a,4,5-tetrahydro-2H-cyclopenta[c]acridin-2-one]",85,167 to 168,1.6 to 2.3 µM,
"C[Si](C)(C)C1=C2c3nc4ccccc4cc3C(O)CC2CC1=O (single isomer, unassigned) [5-hydroxy-1-trimethylsilanyl-3,3a,4,5-tetrahydro-2H-cyclopen] [5-hydroxy-1-trimethylsilanyl-3,3a,4,5-tetrahydro-2H-cyclopenta[c]acridin-2-one]",,,26 µM and 3 µM,
CC(=O)c1cc2ccccc2nc1C#Cc1ccccn1 [1-(2-(Pyridin-2-ylethynyl)quinolin-3-yl)ethanone],4,,,
C=CC(O)c1cc2ccccc2nc1C#C[Si](C)(C)C (stereo not drawn) [1-(2-(Trimethylsilanylethynyl)quinolin-3-yl)propan-2-en-1-ol],0.4,,,
C[Si](C)(C)C#Cc1nc2ccccc2cc1C(=O)CC[N+](=O)[O-] [1-(2-Trimethylsilanylethynyl)quinolin-3-yl)propan-3-nitro-1-one],47,,,
C=CCC(O)c1cc2ccccc2nc1C#CCOC1CCCCO1 (stereo not drawn) [1-(2-[3-(Tetrahydropyran-2-yloxy)prop-1-ynyl]quinolin-3-yl)but-3-en-1-ol],2,,,
"C[Si](C)(C)C1=C2c3nc4ccccc4cc3C(Cl)CC2CC1=O (stereo not drawn) [5-Chloro-1-trimethylsilanyl-3,3a,4,5-tetrahydro-2H-cyclopenta[c]acridin-2-one]",,,63 µM,3.6
"COc1cc2cc3c(nc2cc1OC)C1=C([Si](C)(C)C)C(=O)CC1CC3O (stereo not drawn) [5-Hydroxy-8,9-dimethoxy-1-trimethylsilanyl-3,3a,4,5-tetrahydro-2H-cyclopenta[c]acridin-2-one]",,221 to 222,3.3 µM,1.7
"COc1ccc2nc3c(cc2c1)C(O)CC1CC(=O)C([Si](C)(C)C)=C31 (stereo not drawn) [5-Hydroxy-8-methoxy-1-trimethylsilanyl-3,3a,4,5-tetrahydro-2H-cyclopenta[c]acridin-2-one]",,186,4 µM,1.7
"COc1ccc2cc3c(nc2c1)C1=C([Si](C)(C)C)C(=O)CC1CC3O (stereo not drawn) [5-Hydroxy-9-methoxy-1-trimethylsilanyl-3,3a,4,5-tetrahydro-2H-cyclopenta[c]acridin-2-one]",44,187,4.8 µM,1.6
"CCCCC1=C2c3nc4ccccc4cc3C(=O)CC2CC1=O (stereo not drawn) [5-Keto-1-butyl-3,3a,4,5-tetrahydro-2H-cyclopenta[c]acridin-2-one]",38,,,
